The text below walks through data of patent EP4800012A1, “COMPOUND ACTING AS PARP7 INHIBITOR” (Dovetree Medicines Unus, Inc., priority 2023, dated 2025).

pIC50: −log10 of the molar value. Read-outs that look alike come from different tables or passages of the source. Bounds are passed on as bounds.

Experiment [1] deals with PARP2 (Homo sapiens, UniProt Q9UGN5). Kind of experiment: PARP2 in vitro enzyme activity inhibition (chemiluminescence assay). Type of experiment: biochemical. Here is the method: (§1) Following the method in test example 1, the IC50 value of the inhibition of each compound on PARP7 activity were detected and obtained. Reference was made to the method in test example 1, except that the 6.25 nM of PARP7 solution in the ribosylation reaction step was replaced with a 5 nM of PARP1 solution or a 5 nM of PARP2. Similar to the 6.25 nM of PARP7 solution, the 5 nM of PARP1 solution and 5 nM of PARP2 solution were also formulated and obtained by using 1× Assay buffer.

For experiment [2], the target named is T1, PARP7 (Homo sapiens, UniProt Q7Z3E1).
T1 construct: purchased BPS 80527
T1 sequence (Q7Z3E1 1-657): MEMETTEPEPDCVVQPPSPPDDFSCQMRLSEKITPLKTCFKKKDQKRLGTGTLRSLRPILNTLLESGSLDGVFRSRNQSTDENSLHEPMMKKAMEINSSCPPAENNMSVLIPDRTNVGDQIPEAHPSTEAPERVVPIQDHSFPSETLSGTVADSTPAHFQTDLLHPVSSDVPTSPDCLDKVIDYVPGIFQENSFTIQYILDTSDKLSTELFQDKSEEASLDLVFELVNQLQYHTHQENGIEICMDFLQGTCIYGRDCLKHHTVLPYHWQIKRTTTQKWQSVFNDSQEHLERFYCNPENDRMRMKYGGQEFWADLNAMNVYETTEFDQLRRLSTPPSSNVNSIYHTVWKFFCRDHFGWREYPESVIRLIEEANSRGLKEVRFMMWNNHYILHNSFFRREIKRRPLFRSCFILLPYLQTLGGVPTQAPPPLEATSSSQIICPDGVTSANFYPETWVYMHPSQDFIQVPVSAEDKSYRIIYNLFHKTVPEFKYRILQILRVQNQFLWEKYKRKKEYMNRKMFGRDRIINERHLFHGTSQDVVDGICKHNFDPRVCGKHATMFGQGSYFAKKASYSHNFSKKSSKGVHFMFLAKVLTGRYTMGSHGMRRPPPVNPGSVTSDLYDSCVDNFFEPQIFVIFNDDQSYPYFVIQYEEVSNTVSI
The experiment is described as follows: Inhibition of the compound on PARP7 protein activity (ADP-ribosylation, chemiluminescence). Type of experiment: biochemical.

Experiment [3] addresses PARP1 (Homo sapiens, UniProt P09874). The experiment is described as follows: PARP1 in vitro enzyme activity inhibition (chemiluminescence assay). The experiment is classed as biochemical. The protocol: as §1
The subject of experiment [4] is NCI-H1373 cells. The experiment is described as follows: Inhibition on NCI-H1373 cell proliferation (Cell-Titer-Glo). The experiment is classed as cell-based. The conditions noted are these: Homo sapiens, 144 h; NCI-H1373 cells, incubation for 6 days, Cell-Titer-Glo; read-out: NCI-H1373 cell proliferation inhibition IC50.
For experiment [5], the target named is T1, PARP7. Kind of experiment: PARP7 in vitro enzyme activity inhibition (chemiluminescence assay, selectivity test). Type of experiment: biochemical. The protocol:
as §1

The target in experiment [6] is T1, PARP7. Kind of experiment: PARP7 TR-FRET binding inhibition (displacement of probe RBN011147). Here is the method: The ability of the compound to substitute the probe RBN011147 (Wigle et al., 2020, Cell Chemical Biology 27, 877-887) was tested by a TR-FRET method, and IC50 was calculated to evaluate the binding ability of the compound to PARP7. […]
On the technique in general: TR-FRET usually uses a lanthanide donor and a delayed reading to cut background.

Where [7] appears, read: 5 nM of PARP2, method of test example 1; read-out: PARP2 activity inhibition IC50.
Where [8] appears, read: Histone H1 coated plate, Biotin-Labeled NAD+, 2 h at room temperature, chemiluminescence; read-out: PARP7 activity inhibition IC50.
Setting [9] is: 5 nM of PARP1 solution, method of test example 1; read-out: PARP1 activity inhibition IC50.
Where [10] appears, read: 6.25 nM of PARP7 solution, method of test example 1; read-out: PARP7 activity inhibition IC50.
[11] abbreviates: TR-FRET, Biotin-labeled probe RBN011147; read-out: PARP7 binding inhibition IC50.

PARP2, sequence (Q9UGN5 whole entry, species assumed): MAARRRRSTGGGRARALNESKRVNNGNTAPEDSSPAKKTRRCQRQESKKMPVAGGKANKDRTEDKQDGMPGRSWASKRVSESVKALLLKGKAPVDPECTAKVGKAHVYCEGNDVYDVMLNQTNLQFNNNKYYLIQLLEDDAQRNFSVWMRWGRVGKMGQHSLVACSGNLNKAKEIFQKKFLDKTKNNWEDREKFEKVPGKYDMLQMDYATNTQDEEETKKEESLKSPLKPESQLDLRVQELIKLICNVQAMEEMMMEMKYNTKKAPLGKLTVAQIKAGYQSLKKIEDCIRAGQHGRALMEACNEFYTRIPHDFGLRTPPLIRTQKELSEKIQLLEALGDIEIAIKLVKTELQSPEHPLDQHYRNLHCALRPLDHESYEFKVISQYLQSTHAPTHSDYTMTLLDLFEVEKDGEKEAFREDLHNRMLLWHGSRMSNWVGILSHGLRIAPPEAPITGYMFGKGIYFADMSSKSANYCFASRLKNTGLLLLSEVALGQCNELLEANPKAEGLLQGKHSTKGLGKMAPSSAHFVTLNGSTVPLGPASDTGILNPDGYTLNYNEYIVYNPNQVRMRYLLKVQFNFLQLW
PARP1, sequence (P09874 whole entry, species assumed): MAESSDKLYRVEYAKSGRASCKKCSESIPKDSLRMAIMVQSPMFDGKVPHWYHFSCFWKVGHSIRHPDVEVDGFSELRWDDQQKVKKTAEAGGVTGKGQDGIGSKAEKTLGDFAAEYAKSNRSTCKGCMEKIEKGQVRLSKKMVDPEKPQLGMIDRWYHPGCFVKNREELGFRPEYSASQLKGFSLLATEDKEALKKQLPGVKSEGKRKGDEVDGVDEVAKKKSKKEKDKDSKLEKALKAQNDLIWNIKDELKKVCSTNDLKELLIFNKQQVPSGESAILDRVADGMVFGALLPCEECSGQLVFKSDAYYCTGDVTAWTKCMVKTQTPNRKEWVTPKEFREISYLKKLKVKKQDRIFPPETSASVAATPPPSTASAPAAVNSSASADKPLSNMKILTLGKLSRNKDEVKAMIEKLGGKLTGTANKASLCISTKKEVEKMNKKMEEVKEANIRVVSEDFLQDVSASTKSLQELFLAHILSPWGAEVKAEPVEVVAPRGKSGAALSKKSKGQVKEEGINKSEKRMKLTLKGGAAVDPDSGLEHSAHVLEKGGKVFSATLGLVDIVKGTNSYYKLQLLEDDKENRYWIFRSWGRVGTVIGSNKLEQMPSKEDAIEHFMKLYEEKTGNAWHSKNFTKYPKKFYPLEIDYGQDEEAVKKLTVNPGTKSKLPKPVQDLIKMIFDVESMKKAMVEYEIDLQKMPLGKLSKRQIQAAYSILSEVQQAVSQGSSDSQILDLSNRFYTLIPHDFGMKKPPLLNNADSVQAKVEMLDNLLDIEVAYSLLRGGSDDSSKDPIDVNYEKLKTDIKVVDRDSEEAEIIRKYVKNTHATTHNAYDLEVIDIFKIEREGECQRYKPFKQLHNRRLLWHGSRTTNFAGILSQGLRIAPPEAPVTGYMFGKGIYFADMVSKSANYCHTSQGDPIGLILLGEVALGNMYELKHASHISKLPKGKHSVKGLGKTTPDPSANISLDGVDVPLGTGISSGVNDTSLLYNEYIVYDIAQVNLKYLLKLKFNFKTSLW

As for `O=C(CCc1c[nH]c(=O)c(C(F)(F)F)c1N1CC2(CCC2)C1)Nc1ccc(-c2ncc(C(F)(F)F)cn2)cn1` [Example 70], the pIC50 is less than 7.00 in experiment [1] (read-out: PARP2 activity inhibition IC50; 5 nM of PARP2, method of test example 1); 8.00 to 8.52 in experiment [2] (read-out: PARP7 activity inhibition IC50; Histone H1 coated plate, Biotin-Labeled NAD+, 2 h at room temperature, chemiluminescence); less than 7.00 in experiment [3] (read-out: PARP1 activity inhibition IC50; 5 nM of PARP1 solution, method of test example 1); less than 5.52 in experiment [4]; 8.00 to 8.52 in experiment [5] (read-out: PARP7 activity inhibition IC50; 6.25 nM of PARP7 solution, method of test example 1); more than 8.00 in experiment [6] (read-out: PARP7 binding inhibition IC50; TR-FRET, Biotin-labeled probe RBN011147).
In the case of `C[C@H]1CCN(C(=O)[C@@H](CCCNC(=O)c2ccc(-c3ncc(C(F)(F)F)s3)cc2)Nc2cn[nH]c(=O)c2C(F)(F)F)C1` [Example 232], the pIC50 is 8.00 to 8.52 in experiment [1] (setting [7]); more than 8.52 in experiment [2] (setting [8]); 8.00 to 8.52 in experiment [3] (setting [9]); 6.00 to 6.52 in experiment [4]; more than 8.52 in experiment [5] (setting [10]); 7.52 to 8.00 in experiment [6] (setting [11]).
In the case of `CC1(C#N)CN(C(=O)[C@@H](CCCNC(=O)c2ccc(-c3ncc(C(F)(F)F)s3)cc2)Nc2cn[nH]c(=O)c2C(F)(F)F)C1` [Example 247], the pIC50 in experiment [1] (setting [7]) was 7.00 to 7.52; in experiment [2] (setting [8]), 8.00 to 8.52; in experiment [3] (setting [9]), 7.52 to 8.00; in experiment [4] it was less than 5.52; in experiment [5] (setting [10]) it was 8.00 to 8.52; in experiment [6] (setting [11]), 7.52 to 8.00.
`CC1CN(C(=O)[C@@H](CCCNC(=O)c2ccc(-c3ncc(C(F)(F)F)s3)cc2)Nc2cn[nH]c(=O)c2C(F)(F)F)C1` [Example 233]: the pIC50 in experiment [1] (setting [7]) is more than 8.52; in experiment [2] (setting [8]) it was more than 8.52; in experiment [3] (setting [9]), 8.00 to 8.52; in experiment [4] it was 6.00 to 6.52; in experiment [5] (setting [10]), more than 8.52; in experiment [6] (setting [11]), more than 8.00.
For `O=C(NCCC[C@@H](Nc1cn[nH]c(=O)c1C(F)(F)F)C(=O)Nc1ccccn1)c1ccc(-c2ncc(C(F)(F)F)s2)cc1` [Example 244], the pIC50 in experiment [1] (setting [7]) was 7.00 to 7.52; in experiment [2] (setting [8]), more than 8.52; in experiment [3] (setting [9]) it was 8.00 to 8.52; in experiment [4], less than 5.52; in experiment [5] (setting [10]) it was more than 8.52; in experiment [6] (setting [11]), 7.00 to 7.52.
For `Cc1c(CCC(=O)Nc2ccc(-c3ncc(C(F)(F)F)cn3)cc2)c[nH]c(=O)c1C(F)(F)F` [Example 10], the pIC50 in experiment [1] (setting [7]) was 8.00 to 8.52; in experiment [2] (setting [8]), more than 8.52; in experiment [3] (setting [9]), 8.00 to 8.52; in experiment [4] it was 5.52 to 6.00; in experiment [5] (setting [10]) it was more than 8.52; in experiment [6] (setting [11]) it was more than 8.00.
Take `CNC(=O)[C@@H](CCCNC(=O)c1ccc(-c2ncc(C(F)(F)F)s2)cc1)Nc1cn[nH]c(=O)c1C(F)(F)F` [Example 229]: the pIC50 in experiment [1] (setting [7]) is 7.52 to 8.00; in experiment [2] (setting [8]), more than 8.52; in experiment [3] (setting [9]) it was 7.00 to 7.52; in experiment [4], more than 6.52; in experiment [5] (setting [10]) it was more than 8.52; in experiment [6] (setting [11]), 7.52 to 8.00.
`O=C(NCCCC(Nc1cn[nH]c(=O)c1C(F)(F)F)C(=O)N1CC2(CCC2)C1)c1cnc(-c2ncc(C(F)(F)F)cn2)cn1` (stereo not drawn) [Example 87]: the pIC50 in experiment [1] (setting [7]) was 7.52 to 8.00; in experiment [2] (setting [8]) it was more than 8.52; in experiment [3] (setting [9]), 7.00 to 7.52; in experiment [4], more than 6.52; in experiment [5] (setting [10]) it was more than 8.52; in experiment [6] (setting [11]), 7.52 to 8.00.
Take `O=C(NCCC[C@@H](Nc1cn[nH]c(=O)c1C(F)(F)F)C(=O)N1CC[C@H](F)C1)c1ccc(-c2ncc(C(F)(F)F)s2)cc1` [Example 241]: the pIC50 is 8.00 to 8.52 in experiment [1] (setting [7]); more than 8.52 in experiment [2] (setting [8]); 7.52 to 8.00 in experiment [3] (setting [9]); 5.52 to 6.00 in experiment [4]; more than 8.52 in experiment [5] (setting [10]); 7.52 to 8.00 in experiment [6] (setting [11]).
`CCNC(=O)C(CCCNC(=O)c1ccc(-c2ncc(C(F)(F)F)s2)cc1)Nc1cn[nH]c(=O)c1C(F)(F)F` (stereo not drawn) [Example 231]: the pIC50 in experiment [1] (setting [7]) is 8.00 to 8.52; in experiment [2] (setting [8]), more than 8.52; in experiment [3] (setting [9]), 7.52 to 8.00; in experiment [4], more than 6.52; in experiment [5] (setting [10]) it was more than 8.52; in experiment [6] (setting [11]), more than 8.00.
On to `O=C(NCCC[C@@H](Nc1cn[nH]c(=O)c1C(F)(F)F)C(=O)N1CC(Cl)C1)c1ccc(-c2ncc(C(F)(F)F)s2)cc1` [Example 224], for which the pIC50 in experiment [1] (setting [7]) was 7.52 to 8.00; in experiment [2] (setting [8]), more than 8.52; in experiment [3] (setting [9]), 8.00 to 8.52; in experiment [4] it was more than 6.52; in experiment [5] (setting [10]) it was more than 8.52; in experiment [6] (setting [11]), more than 8.00.
